The source made the active and inactive calls. The rule behind the calls is not given here.
Assays:
Escherichia coli [1] = test: Antibacterial activity against Escherichia coli ATCC 8793 at 70 ug/ml after 24 hr by paper disk diffusion method; type: functional; details: ATCC 8793, 24 h, read-out: DIZ
Fusarium oxysporum [2] = test: Fungicidal activity against Fusarium oxysporum MTCC 2087; type: functional, organism-based
Aspergillus niger [3] = test: Fungicidal activity against Aspergillus niger MTCC 3323; type: functional, organism-based
Candida albicans [4] = test: Fungicidal activity against Candida albicans MTCC 227; type: functional, organism-based
Bacillus subtilis [5] = test: Bactericidal against Bacillus subtilis ATCC 6633; type: functional, organism-based
Staphylococcus aureus [6] = test: Antibacterial activity against Staphylococcus aureus ATCC 25923 at 50 ug/ml after 24 hr by paper disk diffusion method; type: functional; details: ATCC 25923, 24 h, read-out: DIZ
Staphylococcus aureus [7] = test: Antibacterial activity against Staphylococcus aureus ATCC 25923 at 70 ug/ml after 24 hr by paper disk diffusion method; type: functional; details: ATCC 25923, 24 h, read-out: DIZ
Pseudomonas aeruginosa [8] = test: Antibacterial activity against Pseudomonas aeruginosa ATCC 27853 at 30 ug/ml after 24 hr by paper disk diffusion method; type: functional; details: ATCC 27853, 24 h, read-out: DIZ
Pseudomonas aeruginosa [9] = test: Antibacterial activity against Pseudomonas aeruginosa ATCC 27853 at 50 ug/ml after 24 hr by paper disk diffusion method; type: functional; details: ATCC 27853, 24 h, read-out: DIZ
Pseudomonas aeruginosa [10] = test: Antibacterial activity against Pseudomonas aeruginosa ATCC 27853 at 70 ug/ml after 24 hr by paper disk diffusion method; type: functional; details: ATCC 27853, 24 h, read-out: DIZ
Escherichia coli [11] = test: Antibacterial activity against Escherichia coli ATCC 8793 at 30 ug/ml after 24 hr by paper disk diffusion method; type: functional; details: ATCC 8793, 24 h, read-out: DIZ
Escherichia coli [12] = test: Antibacterial activity against Escherichia coli ATCC 8793 at 50 ug/ml after 24 hr by paper disk diffusion method; type: functional; details: ATCC 8793, 24 h, read-out: DIZ
Staphylococcus aureus [13] = test: Bactericidal activity against Staphylococcus aureus ATCC 25923; type: functional, organism-based
Pseudomonas aeruginosa [14] = test: Bactericidal activity against Pseudomonas aeruginosa ATCC 27853; type: functional, organism-based
Escherichia coli [15] = test: Bactericidal activity against Escherichia coli ATCC 8793; type: functional, organism-based
Fusarium oxysporum [16] = test: Antifungal activity against Fusarium oxysporum MTCC 2087 at 30 ug/ml by paper disk diffusion method; type: functional; details: read-out: DIZ
Fusarium oxysporum [17] = test: Antifungal activity against Fusarium oxysporum MTCC 2087 at 50 ug/ml by paper disk diffusion method; type: functional; details: read-out: DIZ
Fusarium oxysporum [18] = test: Antifungal activity against Fusarium oxysporum MTCC 2087 at 70 ug/ml by paper disk diffusion method; type: functional; details: read-out: DIZ
Aspergillus niger [19] = test: Antifungal activity against Aspergillus niger MTCC 3323 at 30 ug/ml by paper disk diffusion method; type: functional; details: read-out: DIZ
Aspergillus niger [20] = test: Antifungal activity against Aspergillus niger MTCC 3323 at 50 ug/ml by paper disk diffusion method; type: functional; details: read-out: DIZ
Aspergillus niger [21] = test: Antifungal activity against Aspergillus niger MTCC 3323 at 70 ug/ml by paper disk diffusion method; type: functional; details: read-out: DIZ
Candida albicans [22] = test: Antifungal activity against Candida albicans MTCC 227 at 30 ug/ml by paper disk diffusion method; type: functional; details: read-out: DIZ
Candida albicans [23] = test: Antifungal activity against Candida albicans MTCC 227 at 50 ug/ml by paper disk diffusion method; type: functional; details: read-out: DIZ
Candida albicans [24] = test: Antifungal activity against Candida albicans MTCC 227 at 70 ug/ml by paper disk diffusion method; type: functional; details: read-out: DIZ
Bacillus subtilis [25] = test: Antibacterial activity against Bacillus subtilis ATCC 6633 at 30 ug/ml after 24 hr by paper disk diffusion method; type: functional; details: ATCC 6633, 24 h, read-out: DIZ
Bacillus subtilis [26] = test: Antibacterial activity against Bacillus subtilis ATCC 6633 at 50 ug/ml after 24 hr by paper disk diffusion method; type: functional; details: ATCC 6633, 24 h, read-out: DIZ
Bacillus subtilis [27] = test: Antibacterial activity against Bacillus subtilis ATCC 6633 at 70 ug/ml after 24 hr by paper disk diffusion method; type: functional; details: ATCC 6633, 24 h, read-out: DIZ
Staphylococcus aureus [28] = test: Antibacterial activity against Staphylococcus aureus ATCC 25923 at 30 ug/ml after 24 hr by paper disk diffusion method; type: functional; details: ATCC 25923, 24 h, read-out: DIZ

CCCCCN(CCCCC)CC(=O)Nn1c(S)nnc1-c1ccc(OC)cc1
zone of inhibition at 70 µg/mL (Escherichia coli [1]): 10.2 mm
Activity (Fusarium oxysporum [2]): inactive
Activity (Aspergillus niger [3]): inactive
Activity (Candida albicans [4]): inactive
Activity (Bacillus subtilis [5]): Active
zone of inhibition at 50 µg/mL (Staphylococcus aureus [6]): 8.13 mm
zone of inhibition at 70 µg/mL (Staphylococcus aureus [7]): 9.16 mm
zone of inhibition at 30 µg/mL (Pseudomonas aeruginosa [8]): 6.23 mm
zone of inhibition at 50 µg/mL (Pseudomonas aeruginosa [9]): 7.13 mm
zone of inhibition at 70 µg/mL (Pseudomonas aeruginosa [10]): 8.1 mm
zone of inhibition at 30 µg/mL (Escherichia coli [11]): 8.97 mm
zone of inhibition at 50 µg/mL (Escherichia coli [12]): 9.26 mm
Activity (Staphylococcus aureus [13]): Active
Activity (Pseudomonas aeruginosa [14]): Active
Activity (Escherichia coli [15]): Active
zone of inhibition at 30 µg/mL (Fusarium oxysporum [16]): 6.17 mm
zone of inhibition at 50 µg/mL (Fusarium oxysporum [17]): 7.21 mm
zone of inhibition at 70 µg/mL (Fusarium oxysporum [18]): 8.2 mm
zone of inhibition at 30 µg/mL (Aspergillus niger [19]): 11.2 mm
zone of inhibition at 50 µg/mL (Aspergillus niger [20]): 12.2 mm
zone of inhibition at 70 µg/mL (Aspergillus niger [21]): 13 mm
zone of inhibition at 30 µg/mL (Candida albicans [22]): 10.1 mm
zone of inhibition at 50 µg/mL (Candida albicans [23]): 11.3 mm
zone of inhibition at 70 µg/mL (Candida albicans [24]): 12.2 mm
zone of inhibition at 30 µg/mL (Bacillus subtilis [25]): 6.13 mm
zone of inhibition at 50 µg/mL (Bacillus subtilis [26]): 7.26 mm
zone of inhibition at 70 µg/mL (Bacillus subtilis [27]): 8.03 mm
zone of inhibition at 30 µg/mL (Staphylococcus aureus [28]): 7.2 mm

Reference: ChEMBL document CHEMBL3045810, “Synthesis and evaluation of 4-(substituted)-acetylamino-3-mercapto-5-(4-substituted) phenyl-1,2,4-triazole derivatives as antimicrobial agents” (2012)
